Laboratory results published in US8383637B2, “2-amino-quinazoline derivatives useful as inhibitors of β-secretase (BACE)” (Jansssen Pharmaceutica N.V., priority 2004, dated 2013).

Tests used:
Assay type in all cases: biochemical
β-secretase(BACE) [1] = target: T1, β-secretase(BACE) (Homo sapiens, UniProt P56817); assay: BACE Assay-1 (MCA-substrate, IC50); details: procedure of Example 158; read-out: IC50 μM (158)
T1 construct: purchased Panvera
How it was run: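 Human BACE (work solution 10 μg/mL) with MCA-peptide substrate (stock 2.0 mg/mL) in 0.05 M citrate buffer, pH 5.0, with PEG8000. Fluorescence read at T0 and T60; compounds tested at multiple concentrations and IC50 calculated from these readings.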

β-secretase(BACE) [2] = target: T1, β-secretase(BACE); assay: BACE Assay-2 (FS1 substrate, IC50 and Ki); details: procedure of Example 159, FS1 substrate; for Ki: read-out: Ki μM (159)
β-secretase(BACE) [3] = target: T1, β-secretase(BACE); assay: BACE % Inhibition Assay ((Aedens)-[…]-(Dabcyl K-amide) substrate); details: % error ±10%; for inhibition at 3 µM / inhibition at 10 µM: read-out: % Inhibition
Protocol: The substrate stock solution was prepared in DMSO as a 10 mg/mL solution. The substrate working solution was prepared by diluting the 10 mg/mL stock solution with substrate assay buffer to a final concentration of 300 μg/mL. The β-secretase (BACE) working solution was prepared by diluting a 0.83 mg/mL BACE stock solution with enzyme assay buffer to a final concentration of 4 μg/mL.
Test compounds were dissolved in DMSO to 10 mM.
The screening procedure for this assay was as follows: 15 μL of BACE working solution was pipetted into each well of a 96-well plate. To each well was then pipetted 2 μL of test compound at the selected concentration. Test compound and BACE were then mixed with a pipettor and incubated for 20 min at room temperature. To each well was then added 10 μL of the substrate working solution. The plates were then incubated for 1 hour at room temperature.
The procedure for the blank was as follows. 15 μL of assay buffer was pipetted into each well to be used as a blank control. To each well was then added 2 μL of vehicle and 10 μL of substrate working solution. The plates were then incubated for 1 hour at room temperature.
The procedure for the positive control was as follows: 15 μl of BACE working solution was pipetted into each well to be used as a positive control. To each well was then pipetted 2 μL of vehicle. Vehicle and BACE were then mixed with a pipettor and incubated for 20 min at room temperature. To each well was then added 10 μL of the substrate working solution. The plates were then incubated for 1 hour at room temperature.
For test compounds, % inhibition was determined at each concentration as follows: […]

β-secretase(BACE) [4] = target: T1, β-secretase(BACE); assay: BACE FS1% Inhibition Assay; details: FS1 substrate
How it was run: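 Percent inhibition at each tested concentration, referenced to enzyme-free blank and vehicle-only positive control. Reaction: compound and BACE (4 μg/mL working stock) mixed 20 min at room temperature before FS1 substrate (300 μg/mL working stock), then 1 h at room temperature.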

T1 sequence (P56817 46-501): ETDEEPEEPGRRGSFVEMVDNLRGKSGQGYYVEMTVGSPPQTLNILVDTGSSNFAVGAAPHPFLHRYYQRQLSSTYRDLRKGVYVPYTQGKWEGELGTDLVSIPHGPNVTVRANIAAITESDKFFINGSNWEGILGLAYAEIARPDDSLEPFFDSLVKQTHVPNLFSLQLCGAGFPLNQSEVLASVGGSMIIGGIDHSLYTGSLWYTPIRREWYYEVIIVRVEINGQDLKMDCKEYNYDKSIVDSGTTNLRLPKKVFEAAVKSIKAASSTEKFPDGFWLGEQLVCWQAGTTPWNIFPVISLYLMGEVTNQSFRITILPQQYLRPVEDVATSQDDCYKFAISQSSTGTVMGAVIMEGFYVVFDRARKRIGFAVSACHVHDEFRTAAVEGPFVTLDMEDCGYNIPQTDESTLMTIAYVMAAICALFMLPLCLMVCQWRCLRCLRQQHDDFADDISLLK

Row | Compound | IC50 (β-secretase(BACE) [2]) [µM] | Ki (β-secretase(BACE) [2]) [µM] | % Inhibition (β-secretase(BACE) [3]; 3 μM test compound) [%] | inhibition at 3 µM (β-secretase(BACE) [3]; 3 μM test compound) [%] | inhibition at 10 µM (β-secretase(BACE) [3]; 10 μM test compound) [%] | further results
1 | 3-(2-Amino-6-phenoxy-4H-quinazolin-3-yl)-pentanedioic acid bis-(cyclohexyl-methyl-amide) [Compound 107] | 4.58 | 1.2 | 48 |  |  | IC50 (β-secretase(BACE) [1]): 0.82 µM; % Inhibition (β-secretase(BACE) [3]; 10 μM test compound): 78%
2 | NC1=Nc2ccc(C(=O)c3ccccc3)cc2CN1CCNC(=O)C1CCCCC1 [Compound 7, Cyclohexanecarboxylic acid [2-(2-amino-6-benzoyl-4H-quinazolin-3-yl)-ethyl]-amide] | 5.3 | 0.24 |  | 76 | 87 | IC50 (β-secretase(BACE) [1]): 1.4 µM
3 | CN(CCCN1Cc2cc(C(=O)c3ccccc3)ccc2N=C1N)C1CCCCC1 [Compound 15, {2-Amino-3-[3-(cyclohexyl-methyl-amino)-propyl]-3,4-dihydro-quinazolin-6-yl}-phenyl-methanone] |  | 4 |  | 42 | 69 | IC50 (β-secretase(BACE) [1]): 2.3 µM
4 | CN(CCN1Cc2cc(C(=O)c3ccccc3)ccc2N=C1N)C(=O)C1CCCCC1 [Compound 23] | 10 | 1.1 |  | 47 | 76 | IC50 (β-secretase(BACE) [1]): 4.9 µM
5 | CN(C(=O)CCCCN1Cc2cc(C(=O)c3ccccc3)ccc2N=C1N)C1CCCCC1 [Compound 27] | 3 | 0.66 |  | 63 | 81 | IC50 (β-secretase(BACE) [1]): 1.2 µM
6 | NC1=Nc2ccc(C(=O)c3ccccc3)cc2CN1CCCCNC(=O)C1CCCCC1 [Compound 30] | 20 | 2.3 |  | 32 | 48 | IC50 (β-secretase(BACE) [1]): 11 µM
7 | NC1=Nc2ccc(C(=O)c3ccccc3)cc2CN1CCCCC(=O)N(C1CCCCC1)C1CCCCC1 [Compound 46] | 2.1 | 0.6 |  | 66 | 82 | IC50 (β-secretase(BACE) [1]): 0.6 µM
8 | CCCN1Cc2cc(Oc3cccc(N(C(=O)OCc4ccccc4)C4CCCCC4)c3)ccc2N=C1N [Compound 49] | 2.8 | 0.84 |  | 56 | 90 | IC50 (β-secretase(BACE) [1]): 0.8 µM
9 | CN(C(=O)[C@@H]1CCCC[C@@H]1N1Cc2cc(Oc3ccccc3)ccc2N=C1N)C1CCCCC1 [Compound 87] |  |  | <30 |  |  | % Inhibition (β-secretase(BACE) [3]; 10 μM test compound): <30%
10 | CN(C(=O)[C@@H]1CCCN1C(=O)CN1Cc2cc(Oc3ccccc3)ccc2N=C1N)C1CCCCC1 [Compound 88] |  |  | <30 |  |  | % Inhibition (β-secretase(BACE) [3]; 10 μM test compound): <30%
11 | CN(C(=O)c1cc(CN2Cc3cc(Oc4ccccc4)ccc3N=C2N)ccn1)C1CCCCC1 [Compound 89] | 0.4 |  |  | 77 | 81 | 
12 | CN(C(=O)c1cccc(N2Cc3cc(Oc4ccccc4)ccc3N=C2N)c1)C1CCCCC1 [Compound 94] |  |  | <30 |  |  | % Inhibition (β-secretase(BACE) [3]; 10 μM test compound): <30%
13 | CCCC(CCCC(=O)N(CC)C1CCCCC1)N1Cc2cc(Oc3ccccc3)ccc2N=C1N (stereo not drawn) [Compound 105] |  |  | <30 |  |  | % Inhibition (FS) 0.3 μM (β-secretase(BACE) [4]; 0.3 μM test compound): <30%; % Inhibition (FS) 1 μM (β-secretase(BACE) [4]; 1 μM test compound): <30%; % Inhibition (FS) 3 μM (β-secretase(BACE) [4]; 3 μM test compound): <30%; % Inhibition (β-secretase(BACE) [3]; 10 μM test compound): <30%
14 | NC1=Nc2ccc(Oc3ccccc3)cc2CN1Cc1cccc(CNC(=O)C23CC4CC(CC(C4)C2)C3)c1 [Compound 336] |  |  | <30 |  |  | % Inhibition (β-secretase(BACE) [3]; 0.3 μM test compound): <30%; % Inhibition (β-secretase(BACE) [3]; 1 μM test compound): <30%
15 | NC1=Nc2ccc(Oc3ccccc3)cc2CN1Cc1cccc(CNC(=O)C(c2ccccc2)c2ccccc2)c1 [Compound 337] |  |  | <30 |  |  | % Inhibition (β-secretase(BACE) [3]; 0.3 μM test compound): <30%; % Inhibition (β-secretase(BACE) [3]; 1 μM test compound): <30%
16 | NC1=Nc2ccc(Oc3ccccc3)cc2CN1C(CNC(=O)CCC1CCCC1)C1CCCCC1 (stereo not drawn) [Compound 366] |  | 0.067 |  | 119 |  | inhibition at 0.3 µM (β-secretase(BACE) [3]; 0.3 μM test compound): 64%; inhibition at 1 µM (β-secretase(BACE) [3]; 1 μM test compound): 113%
17 | NC1=Nc2ccc(Oc3ccccc3)cc2CN1C(CNC(=O)C1(c2ccc(Cl)cc2)CCCC1)C1CCCCC1 (stereo not drawn) [Compound 390] |  |  | 102 |  |  | % Inhibition (β-secretase(BACE) [3]; 0.3 μM test compound): <30%; % Inhibition (β-secretase(BACE) [3]; 1 μM test compound): 50%

The next lines start with results.

Row | IC50 (β-secretase(BACE) [2]) [µM] | Ki (β-secretase(BACE) [2]) [µM] | % Inhibition (β-secretase(BACE) [3]; 3 μM test compound) [%] | inhibition at 3 µM (β-secretase(BACE) [3]; 3 μM test compound) [%] | inhibition at 10 µM (β-secretase(BACE) [3]; 10 μM test compound) [%] | Compound | further results
18 | 1.6 | 0.38 |  | 67 | 92 | NC1=Nc2ccc(Oc3ccccc3)cc2CN1CCCCC(=O)N(C1CCCCC1)C1CCCCC1 [Compound 19] | IC50 (β-secretase(BACE) [1]): 0.18 µM
19 | 2.1 | 0.34 |  | 68 | 83 | CN(C(=O)CCN1Cc2cc(Oc3ccccc3)ccc2N=C1N)C1CCCCC1 [Compound 20, 3-(2-Amino-6-phenoxy-4H-quinazolin-3-yl)-N-cyclohexyl-N-methyl-propionamide] | IC50 (β-secretase(BACE) [1]): 0.48 µM
20 |  |  | 72 |  |  | CCCC(CCC(=O)N(C)C1CCCCC1)N1Cc2cc(Oc3ccccc3)ccc2N=C1N (stereo not drawn) [Compound 86] | % Inhibition (β-secretase(BACE) [3]; 10 μM test compound): 80%
21 |  |  | <30 |  |  | CC(C)(C)OC(=O)N1CCC(N2Cc3cc(Oc4ccccc4)ccc3N=C2N)C1 (stereo not drawn) [Compound 93] | % Inhibition (β-secretase(BACE) [3]; 10 μM test compound): <30%
22 |  |  | <30 |  |  | CN(C(=O)c1ccc(CN2Cc3cc(Oc4ccccc4)ccc3N=C2N)cc1)C1CCCCC1 [Compound 97] | % Inhibition (β-secretase(BACE) [3]; 10 μM test compound): 53%
23 |  |  | <30 |  |  | CN(C(=O)C1CCC(CN2Cc3cc(Oc4ccccc4)ccc3N=C2N)CC1)C1CCCCC1 (stereo not drawn) [Compound 100] | % Inhibition (β-secretase(BACE) [3]; 10 μM test compound): <30%
24 | 11 |  |  | 45 | 64 | CC(C)(C)OC(=O)NCCCCN1Cc2cc(Oc3ccccc3)ccc2N=C1N [Compound 101] | 
25 | 3.6 | 4 |  | 56 | 74 | CC(C)(C)OC(=O)NCCCN1Cc2cc(Oc3ccccc3)ccc2N=C1N [Compound 103] | 
26 |  |  | <30 |  |  | Cc1ccc(S(=O)(=O)NCCN2Cc3cc(Oc4ccccc4)ccc3N=C2N)cc1 [Compound 109] | % Inhibition (β-secretase(BACE) [3]; 10 μM test compound): 58%
27 |  |  | 107 |  |  | CC(C)(C)C(=O)NCC(C1CCCCC1)N1Cc2cc(Oc3ccccc3)ccc2N=C1N (stereo not drawn) [Compound 317] | % Inhibition (β-secretase(BACE) [3]; 0.3 μM test compound): <30%; % Inhibition (β-secretase(BACE) [3]; 1 μM test compound): 66%
28 |  |  | <30 |  |  | CCCC(CCC)C(=O)NCc1cccc(CN2Cc3cc(Oc4ccccc4)ccc3N=C2N)c1 [Compound 338] | % Inhibition (β-secretase(BACE) [3]; 0.3 μM test compound): <30%; % Inhibition (β-secretase(BACE) [3]; 1 μM test compound): <30%
29 |  |  | <30 |  |  | CCCCC(CC)C(=O)NCc1cccc(CN2Cc3cc(Oc4ccccc4)ccc3N=C2N)c1 (stereo not drawn) [Compound 339] | % Inhibition (β-secretase(BACE) [3]; 0.3 μM test compound): <30%; % Inhibition (β-secretase(BACE) [3]; 1 μM test compound): <30%
30 |  |  | 72 |  |  | CCCCC(CC)C(=O)NCC(c1ccccc1)N1Cc2cc(Oc3ccccc3)ccc2N=C1N (stereo not drawn) [Compound 341] | % Inhibition (β-secretase(BACE) [3]; 0.3 μM test compound): <30%; % Inhibition (β-secretase(BACE) [3]; 1 μM test compound): <30%
31 |  | 0.1 |  | 113 |  | NC1=Nc2ccc(Oc3ccccc3)cc2CN1CCC(=O)NC12CC3CC(CC(C3)C1)C2 [Compound 365] | inhibition at 0.3 µM (β-secretase(BACE) [3]; 0.3 μM test compound): < 30%; inhibition at 1 µM (β-secretase(BACE) [3]; 1 μM test compound): 86%
32 |  | 0.12 |  | 111 |  | CC(C)(C)OC(=O)NCC(C1CCCCC1)N1Cc2cc(Oc3ccccc3)ccc2N=C1N (stereo not drawn) [Compound 367] | inhibition at 0.3 µM (β-secretase(BACE) [3]; 0.3 μM test compound): < 30%; inhibition at 1 µM (β-secretase(BACE) [3]; 1 μM test compound): 80%
33 |  |  | 119 |  |  | CC(C)CCC(=O)NCC(C1CCCCC1)N1Cc2cc(Oc3ccccc3)ccc2N=C1N (stereo not drawn) [Compound 388] | % Inhibition (β-secretase(BACE) [3]; 0.3 μM test compound): 107%; % Inhibition (β-secretase(BACE) [3]; 1 μM test compound): 119%
34 |  | 0.028 |  | 120 |  | CC(C)CC(=O)NCC(C1CCCCC1)N1Cc2cc(Oc3ccccc3)ccc2N=C1N (stereo not drawn) [Compound 389] | inhibition at 0.3 µM (β-secretase(BACE) [3]; 0.3 μM test compound): 85%; inhibition at 1 µM (β-secretase(BACE) [3]; 1 μM test compound): 112%
